Assay results published in patent publication US7435724B2, “Degradation-resistant mononucleoside phosphate compounds” (Inspire Pharmaceutical, Inc., priority 2002, dated 2008).

Test system: whole blood platelet aggregation
Assay: Platelet aggregation assay, whole blood (ADP-induced, impedance mode)
Format: cell-based, human (healthy volunteers)
Settings: Homo sapiens, read-out: PLATELET DATA IC50 Whole Blood, inhibition of aggregation by maximally effective ADP, whole blood diluted 1:1 with saline
Procedure: Blood was collected from healthy volunteers into syringes containing ⅙final blood volume of anti-coagulant ACD (65 mM citric acid, 85 mM sodium citrate, 110 mM dextrose) for washed platelet (WP) preparation or into a syringe containing a final concentration of 10 units/mL heparin or 300 μM PPACK for whole blood (WB) assays. The blood collected for whole blood assays was maintained at room temperature and immediately tested as described below. The blood collected for WP) was centrifuged at 180 g for 15 minutes and the supernatant (platelet rich plasma) was removed. […] Platelet aggregation was measured using the optical mode of a ChronoLog aggregometer (Havertown, Pa.). […] A maximally effective concentration of ADP (typically a concentration that produces between 90 and 100 percent of the maximal response) was added to the sample and aggregation was monitored for 8 minutes. […]
The potency of agonists and inhibitors of platelet aggregation was calculated from both, the rate of aggregation and the maximal extent of aggregation obtained for each determination by fitting the data to a four-parameter logistic equation using the GraphPad software package (GraphPad Corp. San Diego, Calif.).

## CCNC(=O)Nc1ncnc2c1ncn2[C@@H]1O[C@H](COP(=O)(O)OC)C2O[C@H](/C=C/c3ccccc3)O[C@@H]21 (stereo partly drawn) [Compound 217, 2′,3′-(trans)-O-methylenestyryl-5′-(methylphosphate)-N^6-ethylaminocarbonyl-adenosine]
  IC50: 2.5 µM
